Experimental data from PubChem BioAssay AID330 (DTP/NCI, 2004).
“And” between values parts separate entries of the source, which are not always exact repeats. Identical values can stand only once. Inconclusive results and toxic doses are left out. The calls were made as follows: active = survival T/C of 150% or more; inactive = T/C below 125% in these data.

System: P388 leukemia ip, CD2F1 mice, survival T/C
Experiment: NCI In Vivo Anticancer Drug Screen. Data for tumor model P388 Leukemia (intraperitoneal) in CD2F1 (CDF1) mice
Conditions: endpoint: median survival time, higher = longer survival
Outline: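 Mice carrying the transplanted tumor received test compound or vehicle. Survival was recorded in each group, and the value is the treated-group measurement divided by that of the vehicle-treated control group.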

[1] = dose: 25.0 mg/kg/injection, schedule: Q01DX009 (ip), vehicle: Klucel (hydroxypropylcellulose) (HPC)
[2] = dose: 50.0 mg/kg/injection, schedule: Q01DX009 (ip), vehicle: Klucel (hydroxypropylcellulose) (HPC)
[3] = dose: 200.0 mg/kg/injection, schedule: Q01DX009 (ip), vehicle: Klucel (hydroxypropylcellulose) (HPC)
[4] = dose: 25.0 mg/kg/injection, schedule: Q01DX009 (ip), vehicle: saline with Tween-80
[5] = dose: 25.0 mg/kg/injection, schedule: Q04DX003 (ip), vehicle: saline with Tween-80
[6] = dose: 50.0 mg/kg/injection, schedule: Q01DX009 (ip), vehicle: saline with Tween-80
[7] = dose: 50.0 mg/kg/injection, schedule: Q04DX003 (ip), vehicle: saline with Tween-80
[8] = dose: 100.0 mg/kg/injection, schedule: Q04DX003 (ip), vehicle: saline with Tween-80
[9] = dose: 100.0 mg/kg/injection, schedule: Q01DX009 (ip), vehicle: Klucel (hydroxypropylcellulose) (HPC)
[10] = dose: 50.0 mg/kg/injection, schedule: Q01DX005 (ip), vehicle: Klucel (hydroxypropylcellulose) (HPC)
[11] = dose: 100.0 mg/kg/injection, schedule: Q01DX005 (ip), vehicle: Klucel (hydroxypropylcellulose) (HPC)
[12] = dose: 200.0 mg/kg/injection, schedule: Q01DX005 (ip), vehicle: Klucel (hydroxypropylcellulose) (HPC)

Measured: T/C

O=C1CSc2ccccc2N1
inactive: dose: 6.25 mg/kg/injection, schedule: Q01DX009 (ip), vehicle: suspension in saline 102 % of control | dose: 12.5 mg/kg/injection, schedule: Q01DX009 (ip), vehicle: Klucel (hydroxypropylcellulose) (HPC) 105 % of control | dose: 12.5 mg/kg/injection, schedule: Q01DX009 (ip), vehicle: suspension in saline 104 % of control | [1] 97 % of control | dose: 25.0 mg/kg/injection, schedule: Q01DX009 (ip), vehicle: suspension in saline 99 % of control | [2] 88 % of control and 95 % of control | dose: 50.0 mg/kg/injection, schedule: Q01DX009 (ip), vehicle: suspension in saline 104 % of control | [3] 100 % of control | dose: 400.0 mg/kg/injection, schedule: Q01DX009 (ip), vehicle: Klucel (hydroxypropylcellulose) (HPC) 99 % of control

C=C1CC2CCC1C2 (centres undefined)
inactive: [4] 100 % of control | [5] 104 % of control | [6] 100 % of control | [7] 104 % of control | dose: 100.0 mg/kg/injection, schedule: Q01DX009 (ip), vehicle: saline with Tween-80 100 % of control | [8] 100 % of control

c1ccc2c(c1)C1CCC2[n+]2ccccc21 (centres undefined)
inactive: dose: 6.25 mg/kg/injection, schedule: Q01DX005 (ip), vehicle: Klucel (hydroxypropylcellulose) (HPC) 108 % of control | dose: 12.5 mg/kg/injection, schedule: Q01DX005 (ip), vehicle: Klucel (hydroxypropylcellulose) (HPC) 106 % of control | dose: 25.0 mg/kg/injection, schedule: Q01DX005 (ip), vehicle: Klucel (hydroxypropylcellulose) (HPC) 110 % of control

Nc1c(-c2ncc[nH]2)[nH]c2cc(-c3ncc[nH]3)ccc12
inactive: dose: 15.0 mg/kg/injection, schedule: Q01DX005 (ip), vehicle: Klucel (hydroxypropylcellulose) (HPC) 97 % of control | dose: 30.0 mg/kg/injection, schedule: Q01DX005 (ip), vehicle: Klucel (hydroxypropylcellulose) (HPC) 100 % of control | dose: 60.0 mg/kg/injection, schedule: Q01DX005 (ip), vehicle: Klucel (hydroxypropylcellulose) (HPC) 99 % of control and 101 % of control

OC1C2CC3CC(C2)CC1(C#CC1(O)C2CC4CC(C2)CC1C4)C3 (centres undefined)
inactive: [1] 100 % of control | [2] 100 % of control | [9] 93 % of control

O=Cc1cccc2[nH]ccc12
inactive: [10] 102 % of control | [11] 99 % of control | [12] 96 % of control

CCCCCCCCCCCCCCCCCC(=O)NC1=C(Cl)C(=O)c2ccccc2C1=O
inactive: dose: 50.0 mg/kg/injection, schedule: Q01DX005 (ip), vehicle: saline with Tween-80 94 % of control | dose: 100.0 mg/kg/injection, schedule: Q01DX005 (ip), vehicle: saline with Tween-80 94 % of control | dose: 200.0 mg/kg/injection, schedule: Q01DX005 (ip), vehicle: saline with Tween-80 91 % of control

C(=Nc1ccccc1)C1CCCC[N-]1.C(=Nc1ccccc1)C1CCCC[N-]1.[Cu+2].[O-][Cl+3]([O-])([O-])O (centres undefined)
inactive: dose: 4.5 mg/kg/injection, schedule: Q01DX009 (ip), vehicle: saline with Tween-80 90 % of control | dose: 9.0 mg/kg/injection, schedule: Q01DX009 (ip), vehicle: saline with Tween-80 97 % of control | dose: 18.0 mg/kg/injection, schedule: Q01DX009 (ip), vehicle: saline with Tween-80 97 % of control | dose: 18.75 mg/kg/injection, schedule: Q01DX009 (ip), vehicle: saline with Tween-80 97 % of control | [6] 96 % of control

C(=NCCC[Si]12OCCN(CCO1)CCO2)c1ccco1
inactive: [10] 113 % of control | [11] 105 % of control | [12] 105 % of control

O=[N+]([O-])c1ccc(SC(=S)N2CCCCC2)c([N+](=O)[O-])c1
inactive: [2] 105 % of control | [9] 106 % of control | [3] 111 % of control

CCN(CC)CC(COC)Oc1cc(C)ccc1C(C)C (centres undefined)
inactive: [7] 104 % of control | [8] 95 % of control | dose: 200.0 mg/kg/injection, schedule: Q04DX003 (ip), vehicle: saline with Tween-80 109 % of control

O=C1c2c(O)ccc(O)c2C(=O)c2c(NCCCO)ccc(NCCCO)c21
inactive: dose: 0.62 mg/kg/injection, schedule: Q01DX009 (ip), vehicle: acid diluted with saline 110 % of control | dose: 1.25 mg/kg/injection, schedule: Q01DX009 (ip), vehicle: acid diluted with saline 103 % of control | dose: 2.5 mg/kg/injection, schedule: Q01DX009 (ip), vehicle: acid diluted with saline 100 % of control | dose: 5.0 mg/kg/injection, schedule: Q01DX009 (ip), vehicle: acid diluted with saline 107 % of control | dose: 10.0 mg/kg/injection, schedule: Q01DX009 (ip), vehicle: acid diluted with saline 98 % of control | dose: 20.0 mg/kg/injection, schedule: Q01DX009 (ip), vehicle: acid diluted with saline 100 % of control | dose: 40.0 mg/kg/injection, schedule: Q01DX009 (ip), vehicle: acid diluted with saline 100 % of control | dose: 80.0 mg/kg/injection, schedule: Q01DX009 (ip), vehicle: acid diluted with saline 91 % of control

Cc1cc(=O)oc2cc(OC(=O)C(CCCCN)NC(=O)OCc3ccccc3)ccc12 (centres undefined)
inactive: dose: 6.25 mg/kg/injection, schedule: Q01DX009 (ip), vehicle: other 101 % of control | dose: 12.5 mg/kg/injection, schedule: Q01DX009 (ip), vehicle: other 99 % of control | dose: 25.0 mg/kg/injection, schedule: Q01DX009 (ip), vehicle: other 121 % of control | dose: 50.0 mg/kg/injection, schedule: Q01DX009 (ip), vehicle: other 114 % of control | dose: 100.0 mg/kg/injection, schedule: Q01DX009 (ip), vehicle: other 117 % of control

OCC[CH2][Pb]([c]1ccccc1)([c]1ccccc1)[c]1ccccc1
inactive: dose: 0.78 mg/kg/injection, schedule: Q01DX009 (ip), vehicle: Klucel (hydroxypropylcellulose) (HPC) 98 % of control and 105 % of control | dose: 1.56 mg/kg/injection, schedule: Q01DX009 (ip), vehicle: Klucel (hydroxypropylcellulose) (HPC) 100 % of control and 104 % of control and 111 % of control | dose: 3.13 mg/kg/injection, schedule: Q01DX009 (ip), vehicle: Klucel (hydroxypropylcellulose) (HPC) 104 % of control and 110 % of control and 112 % of control | dose: 6.25 mg/kg/injection, schedule: Q01DX009 (ip), vehicle: Klucel (hydroxypropylcellulose) (HPC) 113 % of control and 118 % of control

CS(=O)(=O)c1nc(N)c(S(N)(=O)=O)c(N)n1
inactive: [2] 108 % of control | [9] 111 % of control

COC(=O)N1c2ccccc2C(c2ccccc2)=NC1C#N (centres undefined)
inactive: dose: 7.5 mg/kg/injection, schedule: Q01DX005 (ip), vehicle: saline with Tween-80 103 % of control | dose: 15.0 mg/kg/injection, schedule: Q01DX005 (ip), vehicle: saline with Tween-80 112 % of control | dose: 30.0 mg/kg/injection, schedule: Q01DX005 (ip), vehicle: saline with Tween-80 103 % of control

O=C(O)/C=C\c1c[nH]c2ccccc12
inactive: dose: 60.0 mg/kg/injection, schedule: Q01DX005 (ip), vehicle: saline with Tween-80 94 % of control | dose: 120.0 mg/kg/injection, schedule: Q01DX005 (ip), vehicle: saline with Tween-80 94 % of control | dose: 240.0 mg/kg/injection, schedule: Q01DX005 (ip), vehicle: saline with Tween-80 88 % of control

CCCNc1nc2c(s1)c1c(O)c3c(O)c(C)c4c(c32)C(=O)C(C)(O/C=C\C(OC)C(C)C(OC(C)=O)C(C)C(O)C(C)C(O)C(C)/C=C/C=C(/C)C(=O)N1)O4 (centres undefined)
inactive: [1] 92 % of control | [2] 107 % of control | [9] 99 % of control | [3] 100 % of control

NNc1cccc(C(F)(F)F)c1
inactive: dose: 12.5 mg/kg/injection, schedule: Q01DX009 (ip), vehicle: saline with Tween-80 100 % of control | [4] 90 % of control | [5] 100 % of control | [6] 95 % of control | [7] 105 % of control | [8] 100 % of control
